Assay results reported in patent publication US20190167589A1, “BIOMIMETIC PROTEOLIPID VESICLE COMPOSITIONS AND USES THEREOF” (The Methodist Hospital, priority 2016, published 2019).

What was measured:
human lung cancer cells = assay: Synergy with Etoposide in killing cancer cells in vitro; format: cell-based
[1] = target: T1, Tyrosyl DNA Phosphodiesterase 2 (TDP2) (Homo sapiens, UniProt O95551); assay: High-throughput screening for TDP2 inhibitory activity; format: biochemical
T1 sequence (O95551 1-362): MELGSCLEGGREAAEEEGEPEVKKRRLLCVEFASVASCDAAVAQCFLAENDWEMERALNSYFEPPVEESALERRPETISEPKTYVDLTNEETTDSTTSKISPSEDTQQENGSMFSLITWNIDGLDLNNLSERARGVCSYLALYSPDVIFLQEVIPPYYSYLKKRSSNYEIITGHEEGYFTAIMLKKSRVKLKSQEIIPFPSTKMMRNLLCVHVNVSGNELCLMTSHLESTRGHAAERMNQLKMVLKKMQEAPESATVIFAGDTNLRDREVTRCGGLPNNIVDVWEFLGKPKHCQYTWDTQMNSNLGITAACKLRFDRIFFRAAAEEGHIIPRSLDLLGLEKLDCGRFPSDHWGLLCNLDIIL

[2] = tested on: LPS-induced ear inflammation; assay: Anti-inflammatory efficacy in LPS-induced local ear inflammation; format: in vivo, mice; conditions: treatment 30 min after LPS; DXM 5 mg/kg where loaded
Protocol: Explanted mouse ears were washed twice with PBS and embedded in a cryomold in O.C.T. (Tissue-Tek® O.C.T. Compound, Sakura® Finetek), and instantly frozen at −80° C. Ten μm-thick slides were obtained cutting ears block with a cryostat at −20° C. The slides were stored at −20° C. For hematoxylin and eosin (H/E) staining, slides were thawed, hydrated, washed and stained with hematoxylin and eosin (Sigma-Aldrich).
Once cryo-sections were obtained as described in the previous paragraph, immunofluorescence (IF) staining was performed as previously reported (Gelain et al., 2010). Briefly, slides were thawed and blocked with BSA 5% (Sigma-Aldrich) PBS 1× solution. After washing, they were incubated overnight at 4° C. with anti-neutrophil antibody (Alexa Fluor® 647 anti-mouse Ly-6G/Ly-6C (Gr-1) Biolegend. Excess anti-neutrophil antibody was washed out with PBS 1X. Cells nuclei were stained with DAPI. Slides were sealed with ProLong Gold antifade reagent (Life Technologies™). Images were captured with an Eclipse® Ti Inverted Fluorescent Microscope equipped with Hamamatsu Digital Camera C11440 ORCA-Flash 2.8.
Particles were administrated 30 min after LPS injection.
Explanted Mice ears were washed twice with PBS and embedded in a cryomold in O.C.T. (Tissue-Tek® O.C.T. Compound, Sakura® Finetek), and instantly frozen at −80° C. […]

Compound	synergy with Etoposide in cancer cell killing (human lung cancer cells)	TDP2 inhibitory activity [1]	tissue architecture (H&E staining) [2]
COc1cc2c(cc1OC)-c1c(OC)c(OC)cc3c1[C@H](C2)N(C)CC3 [Glaucine]	able to enhance Etoposide mediated cancer cell killing	TDP2 inhibitor	–
C[C@@H]1C[C@H]2[C@@H]3CCC4=CC(=O)C=C[C@]4(C)[C@@]3(F)[C@@H](O)C[C@]2(C)[C@@]1(O)C(=O)CO [free DXM, Dexamethasone]	–	–	alteration of tissue architecture
